“Also recorded” adds a separate entry of the source.
Experiments:
[1] = test system: rat adjuvant-induced arthritis model (AIA); experiment: Efficacy assay in rat adjuvant-induced arthritis model (AIA), curative protocol; assay type: in vivo, Wistar rats; details: arthritic rats, oral once a day for 10 days, compound 20 10 mg/Kg/day, MTX 0.05 mg/Kg/day, AUC days 10-21 versus vehicle, mean and SEM
Protocol: The effect of DHODH inhibitor compounds were tested in combination with methotrexate (0.05 mg/Kg/day) in the rat adjuvant-induced arthritis model (AIA) in animals with established disease (curative protocol). Briefly, Complete Freund Adjuvant (CFA) was injected into the left hind footpad of Wistar rats, and 10 days later the swelling of the two rear paws was measured with a plethysnnometer. […] Compounds were administered orally once a day for 10 days and paw volumes were determined every two days up to day 21.
The percentage of inhibition for every group was calculated versus values from vehicle-treated rats. The table below depicts the mean and SEM of one experiment using 6 animals per group.

human DHODH = human DHODH (Homo sapiens, UniProt Q02127); experiment: Inhibition of human DHODH activity assay (DCIP chromogen reduction); assay type: biochemical; details: enzyme extracts, 10 min at room temperature, absorbance at 600 nm, duplicate; read-out: hDHODH IC50
Protocol: DHODH activity and its inhibition were studied using a chromogen reduction assay with DCIP (2,6-dichlorophenol-indophenol).
Enzyme extracts (8 μl, ˜1.5 μg of human protein) were incubated in 96-well plates. The assay mixture (200 μl) contained 200 μM CoQD, 100 μM L-DHO, 120 μM DCIP in the assay buffer (100 mM HEPES pH 8.0, 150 mM NaCl, 10% Glicerol, 0.05% Triton X-100) and 2 μl of test compound. The compounds were dissolved in DMSO at a stock concentration of 1 mM, and tested at different concentrations varying from 10 μM to 1 pM to calculate an IC50 (concentration of inhibitor required for 50% of inhibition).
The reaction was initiated by adding the enzyme and then incubated for 10 min at room temperature before measuring DCIP reduction by counting a decrease in absorbance at 600 nm using standard instrumentation (Spectramax).
All reactions were carried out in duplicate and graphs, determining IC50 values for each compound, were plotted using the ABase software.

Swiss mice = experiment: Acute hepatotoxicity assay, plasma liver markers; assay type: in vivo; details: for ALT plasma level / AST plasma level / BIL (total bilirubin) plasma level: Swiss mice, single 100 mg/kg intraperitoneal, 24 hours later
Protocol: Acute hepatotoxicity assays were performed in Swiss mice. Animals received a single administration of either vehicle, or 100 mg/kg of teriflunomide or a compound of the present invention (compounds from the list indicated previously) by intraperitoneal route. Twenty-four hours later, animals were sacrificed and the levels of liver markers AST (aspartate aminotransferase), ALT (alanine aminotransferase) and BIL (total bilirubin) in plasma were determined.

human DHODH, sequence (Q02127 whole entry): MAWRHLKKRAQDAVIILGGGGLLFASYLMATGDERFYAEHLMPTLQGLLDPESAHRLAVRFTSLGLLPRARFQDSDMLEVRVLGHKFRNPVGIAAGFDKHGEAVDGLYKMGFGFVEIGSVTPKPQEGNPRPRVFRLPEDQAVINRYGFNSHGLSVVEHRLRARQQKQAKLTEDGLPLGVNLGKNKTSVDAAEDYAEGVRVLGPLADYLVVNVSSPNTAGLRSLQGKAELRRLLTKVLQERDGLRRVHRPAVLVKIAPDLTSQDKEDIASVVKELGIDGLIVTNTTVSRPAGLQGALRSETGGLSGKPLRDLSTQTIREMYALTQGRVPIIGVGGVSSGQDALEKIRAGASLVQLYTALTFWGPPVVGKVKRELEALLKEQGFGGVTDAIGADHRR

Row | SMILES | % inhibition of the inflammation (AUC) Right paw [1] | IC50 (human DHODH) | ALT plasma level (Swiss mice) | AST plasma level (Swiss mice) | BIL (total bilirubin) plasma level (Swiss mice) | change in plasma liver markers (AST, ALT, BIL) compared to vehicle-treated mice, in words (Swiss mice; mice, intraperitoneal route, 100 mg/kg)
1 | O=C(O)c1cc(C2CC2)ccc1Nc1cnc(-c2c(F)cccc2F)nc1 [Compound 20, 5-cyclopropyl-2-(2-(2,6-difluorophenyl)pyrimidin-5-ylamino)benzoic acid] | 32 ± 8% | 14 nM | 45 IU/I | 98 IU/I | 0.07 mg/dL | 
2 | Cc1ccc(Nc2cnc(-c3ccccc3)c(C)c2)c(C(=O)O)c1 [Compound 60, 5-Methyl-2-(5-methyl-6-phenylpyridin-3-ylamino)benzoic acid] |  | 53 nM | 70 IU/I | 131 IU/I | 0.09 mg/dL | 
3 | Cc1ccc(Nc2cnc(-c3ccccc3Cl)c(C)c2)c(C(=O)O)c1 [Compound 71, 2-(6-(2-Chlorophenyl)-5-methylpyridin-3-ylamino)-5-methylbenzoic acid] |  | 14 nM | 72 IU/I | 95 IU/I | 0.05 mg/dL | 
4 | Cc1ccc(Nc2ccc(-c3ccccc3Cl)nc2)c(C(=O)O)c1 [Compound 85, 2-(6-(2-Chlorophenyl)pyridin-3-ylamino)-5-methylbenzoic acid] |  | 32 nM | 43 IU/I | 83 IU/I | 0.13 mg/dL | 
5 | Cc1ccc(Nc2cnc(-c3ccccc3F)c(C)c2)c(C(=O)O)c1 [Compound 97, 2-(6-(2-Fluorophenyl)-5-methylpyridin-3-ylamino)-5-methylbenzoic acid] |  | 5 nM | 55 IU/I | 92 IU/I | 0.11 mg/dL | 
6 | Cc1ccc(Nc2ccc(-c3c(F)cccc3F)nc2)c(C(=O)O)c1 [Compound 119, 2-(6-(2,6-Difluorophenyl)pyridin-3-ylamino)-5-methylbenzoic acid] |  | 19 nM | 69 IU/I | 96 IU/I | 0.08 mg/dL | 
7 | O=C(O)c1cc(C2CC2)ccc1Nc1cnc(-c2ccccc2Cl)nc1 [Compound 121, 2-(2-(2-Chlorophenyl)pyrimidin-5-ylamino)-5-cyclopropylbenzoic acid] |  | 3 nM | 75 IU/I | 105 IU/I | 0.05 mg/dL | 
8 | Cc1ccc(Nc2cnc(-c3ccccc3Cl)nc2)c(C(=O)O)c1 [Compound 123, 2-(2-(2-Chlorophenyl)pyrimidin-5-ylamino)-5-methylbenzoic acid] |  | 57 nM | 89 IU/I | 113 IU/I | 0.06 mg/dL | 
9 | O=C(O)c1cc(C2CC2)ccc1Nc1cnc(-c2ccccc2F)nc1 [Compound 127, 5-Cyclopropyl-2-(2-(2-fluorophenyl)pyrimidin-5-ylamino)benzoic acid] |  | 10 nM | 56 IU/I | 72 IU/I | 0.07 mg/dL | 
10 | O=C(O)c1cc(C2CC2)ccc1Nc1cnc(-c2cc(OC(F)(F)F)ccc2F)nc1 [Compound 135, 2-(2-(2-fluoro-5-trifluoromethoxyphenyl)pyrimidin-5-ylamino)-5-cyclopropylbenzoic acid] |  | 21 nM |  |  |  | 
11 | O=C(O)c1cc(C2CC2)ccc1Nc1ccc(-c2ccccc2F)nc1 [Compound 138, 2-(6-(2-fluorophenyl)pyridin-3-ylamino)-5-cyclopropylbenzoic acid] |  | 8 nM |  |  |  | 
12 | Cc1ccc(Nc2ccc(-c3ccc(F)cc3F)nc2)c(C(=O)O)c1 [Compound 141, 2-(6-(2,4-difluorophenyl)pyridin-3-ylamino)-5-methylbenzoic acid] |  | 146 nM |  |  |  | 
13 | Cc1ccc(Nc2ccc(-c3c(F)ccc(F)c3F)nc2)c(C(=O)O)c1 [Compound 144, 2-(6-(2,3,6-trifluorophenyl)pyridin-3-ylamino)-5-methylbenzoic acid] |  | 77 nM |  |  |  | 
14 | COc1ccc(F)cc1-c1ncc(Nc2ccc(C)cc2C(=O)O)cc1C [Compound 148, 2-(6-(5-fluoro-2-methoxyphenyl)-5-methylpyridin-3-ylamino)-5-methylbenzoic acid] |  | 46 nM |  |  |  | 
15 | CN(Cc1cnc2nc(N)nc(N)c2n1)c1ccc(C(=O)N[C@@H](CCC(=O)O)C(=O)O)cc1 [MTX, Methotrexate] | 33 ± 9% |  |  |  |  | 
16 | C/C(O)=C(\C#N)C(=O)Nc1ccc(C(F)(F)F)cc1 [Teriflunomide, reference compound] |  |  | 440 IU/I | 655 IU/I | 0.46 mg/dL | dramatic increase; also recorded: drastic increase
